Entries after “also recorded” stand apart in the source; their conditions may differ.
Tests used:
KNCMA1 = target: T1, KNCMA1 (Sus scrofa, UniProt O18866); experiment: Inside-out patch clamp of pig aortic endothelial cells; type: cell-based
T1 construct: endogenous in cells; host or cells: primary pig aortic endothelial cells

[1] = Intraocular pressure (IOP) after topical application; type: in vivo, rats; details: for IOP, mean: BL 11.18
Description: The effect of VSN16R on IOP was measured using the techniques described in the literature (Guo L. et aI, Investigative Ophthalmology & Visual Science, January 2005, Vol 46, No. 1 p 175-182; Guo L. et al, Investigative Ophthalmology & Visual Science, February 2006, Vol 47, No. 2 p 626-633; Cordeiro F. et al, PNAS, Aug. 14, 2007; Vol 104; No. 33, p 13444-13449; Cordeiro F. et al, PNAS, Sep. 7, 2004; Vol 101; No. 36, p 13352-13356).

[2] = test system: C57BL/6.Fmr1 knockout mice; experiment: Open field test in Fmr1 knockout mice; type: in vivo, mouse; details: 2 mg/kg i.v.
Description: Animals: C57BL/6.J. Fmr1-K02 mice, which have a deletion of the promoter and exonl of the Fmr1 gene (Mientjes et al., 2006) and C57BL/6J wild type (WT) were originated from the Jackson laboratory (Ann Harbor, USA). Mice were housed in groups (4-6 per cage) and all animals were provided with ad libitum food and water unless otherwise stated. Mice were maintained on a 12 h light/12 h dark cycle (lights off 19:00 to 7:00) in a temperature-controlled environment (21±1° C.). Testing was conducted in the light phase. Mice were housed in commercial cages and experiments were performed in line with the United Kingdom Animals (Scientific procedures) Act 1986. […]
Drug Treatment: VSN16R was dissolved in saline for injection intravenously via a tail vein using 2 mg/kg a 30 g needle in a volume of 0.1 ml. […] The eye condition (runny eyes or porphyria, ptosis), gait appearance, tremor, tail tone, reactivity to handling was assessed to detect adverse behavioural effect.
Open field: The open field apparatus was used to test multiple processes including anxiety/hyperactivity and habituation to a novel environment, in which decreased exploration as a function of repeated exposure to the same environment is taken as an index of memory. […] The number of squares entered (whole body) (locomotor activity) and rears (both front paws off the ground, but not as part of grooming) were counted. […]

[3] = Tolerability on repeated dosing; type: in vivo, mouse
Half-life by route = type: in vivo
mouse vas deferens = experiment: βγ-methylene ATP-induced contraction of mouse vas deferens; details: 100 nM; electrically unstimulated vasa deferentia
Description: Mouse vas deferens were treated with either DMSO vehicle or 100 nM VSN16R 30 min before the first organ bath injection of various concentrations of βγ-methylene ATP into the organ bath (FIG. 16). The results represent the mean±SEM of βγ-methylene ATP-induced increases in tension (expressed in grams) of electrically unstimulated vasa deferentia. (n=6/group).

[4] = Known efficacious oral dose (model not stated); type: in vivo; details: p.o.
BK channel = BK channel (Homo sapiens, UniProt Q12791); experiment: Inside-out patch clamp (single channel) on EA.hy926 cells; type: cell-based; parameters: The human umbilical vein derived endothelial cell line, EA.hy926; endogenous in cells; host or cells: EA.hy926 human endothelial cell line
BK channel, sequence (Q12791 1-1178 isoform Q12791-5): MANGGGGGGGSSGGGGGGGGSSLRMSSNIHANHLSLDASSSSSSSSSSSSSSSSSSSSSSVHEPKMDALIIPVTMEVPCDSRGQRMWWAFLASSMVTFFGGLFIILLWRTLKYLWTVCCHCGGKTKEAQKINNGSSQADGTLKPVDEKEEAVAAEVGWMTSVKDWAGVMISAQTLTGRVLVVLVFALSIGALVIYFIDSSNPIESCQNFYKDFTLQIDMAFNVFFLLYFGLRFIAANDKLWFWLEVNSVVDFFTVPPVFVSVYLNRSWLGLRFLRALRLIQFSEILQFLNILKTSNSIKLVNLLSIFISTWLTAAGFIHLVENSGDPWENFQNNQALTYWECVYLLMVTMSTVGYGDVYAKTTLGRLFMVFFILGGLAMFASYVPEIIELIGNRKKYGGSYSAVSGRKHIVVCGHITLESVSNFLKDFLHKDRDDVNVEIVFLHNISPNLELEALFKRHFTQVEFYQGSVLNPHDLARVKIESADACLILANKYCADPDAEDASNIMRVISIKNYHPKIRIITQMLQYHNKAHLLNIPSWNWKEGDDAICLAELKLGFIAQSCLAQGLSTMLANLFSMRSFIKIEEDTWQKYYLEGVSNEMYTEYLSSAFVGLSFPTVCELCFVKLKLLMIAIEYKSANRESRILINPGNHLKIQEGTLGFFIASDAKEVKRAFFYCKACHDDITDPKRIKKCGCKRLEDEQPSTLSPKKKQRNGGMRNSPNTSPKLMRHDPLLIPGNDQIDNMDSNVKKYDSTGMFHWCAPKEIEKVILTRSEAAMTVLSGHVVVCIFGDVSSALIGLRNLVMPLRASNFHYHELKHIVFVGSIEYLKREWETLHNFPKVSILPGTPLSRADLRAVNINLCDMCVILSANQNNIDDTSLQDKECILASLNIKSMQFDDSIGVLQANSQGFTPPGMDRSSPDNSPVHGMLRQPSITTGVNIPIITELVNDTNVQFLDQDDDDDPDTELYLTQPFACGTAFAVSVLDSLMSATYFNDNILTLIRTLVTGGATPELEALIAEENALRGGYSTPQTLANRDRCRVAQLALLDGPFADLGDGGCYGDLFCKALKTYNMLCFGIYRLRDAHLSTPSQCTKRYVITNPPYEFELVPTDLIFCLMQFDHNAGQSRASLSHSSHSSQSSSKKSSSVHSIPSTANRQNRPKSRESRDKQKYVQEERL
BK channel, sequence (Q86W47 whole entry partner): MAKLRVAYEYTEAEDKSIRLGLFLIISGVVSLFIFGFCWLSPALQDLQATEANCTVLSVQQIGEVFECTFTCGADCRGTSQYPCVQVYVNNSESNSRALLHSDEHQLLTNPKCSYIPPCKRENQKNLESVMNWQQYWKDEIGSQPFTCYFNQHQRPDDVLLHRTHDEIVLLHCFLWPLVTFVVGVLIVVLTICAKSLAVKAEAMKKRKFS
Description: The human umbilical vein derived endothelial cell line, EA.hy926 (Edgell et al., Proc Natl Acad Sci USA. 1983 June; 80(12): 3734-7) at passage >45 was grown in DMEM containing 10% FCS and 1% HAT (5 mM hypoxanthine, 20 μM aminopterin, 0.8 mM thymidine) and cells were maintained in an incubator at 37° C. in 5% CO2 atmosphere. Cells were plated on either 10 mm (for patch-clamp recordings) or 30 mm glass cover slips (for Ca^2+ measurements).
Single-channel recordings were obtained from excised inside-out membrane patches in symmetrical solutions. The pipettes were filled with (in mM) 140 KCl, 10 HEPES, 1 MgCl2, 5 EGTA, 4,931 CaCl2 with pH 7.2 by adding KOH (i.e. 10 μM free Ca^2+, G. Droogmans, Leuven, Belgium; ftp://ftp.cc.kuleuven.ac.be/pub/droodmans/cabuf.zip). Cells were perfused with a standard bath solution containing (in mM) 140 NaCl, 5 KCl, 1.2 MgCl2, 10 HEPES, 10 glucose, 2.4 CaCl2. Following gigaseal formation, bath solution was switched to the following (in mM) 140 KCl, 10 HEPES, 1 MgCl2, 5 EGTA and a desired free Ca^2+ concentration which was adjusted by adding different amounts of CaCl2 calculated by the program CaBuf. pH was adjusted to 7.2 by adding KOH. Membrane currents and potential were recorded using a List EPC7 amplifier (List, Germany) and pClamp (version 8.2, Axon Instruments) software.

T1 sequence (O18866 whole entry): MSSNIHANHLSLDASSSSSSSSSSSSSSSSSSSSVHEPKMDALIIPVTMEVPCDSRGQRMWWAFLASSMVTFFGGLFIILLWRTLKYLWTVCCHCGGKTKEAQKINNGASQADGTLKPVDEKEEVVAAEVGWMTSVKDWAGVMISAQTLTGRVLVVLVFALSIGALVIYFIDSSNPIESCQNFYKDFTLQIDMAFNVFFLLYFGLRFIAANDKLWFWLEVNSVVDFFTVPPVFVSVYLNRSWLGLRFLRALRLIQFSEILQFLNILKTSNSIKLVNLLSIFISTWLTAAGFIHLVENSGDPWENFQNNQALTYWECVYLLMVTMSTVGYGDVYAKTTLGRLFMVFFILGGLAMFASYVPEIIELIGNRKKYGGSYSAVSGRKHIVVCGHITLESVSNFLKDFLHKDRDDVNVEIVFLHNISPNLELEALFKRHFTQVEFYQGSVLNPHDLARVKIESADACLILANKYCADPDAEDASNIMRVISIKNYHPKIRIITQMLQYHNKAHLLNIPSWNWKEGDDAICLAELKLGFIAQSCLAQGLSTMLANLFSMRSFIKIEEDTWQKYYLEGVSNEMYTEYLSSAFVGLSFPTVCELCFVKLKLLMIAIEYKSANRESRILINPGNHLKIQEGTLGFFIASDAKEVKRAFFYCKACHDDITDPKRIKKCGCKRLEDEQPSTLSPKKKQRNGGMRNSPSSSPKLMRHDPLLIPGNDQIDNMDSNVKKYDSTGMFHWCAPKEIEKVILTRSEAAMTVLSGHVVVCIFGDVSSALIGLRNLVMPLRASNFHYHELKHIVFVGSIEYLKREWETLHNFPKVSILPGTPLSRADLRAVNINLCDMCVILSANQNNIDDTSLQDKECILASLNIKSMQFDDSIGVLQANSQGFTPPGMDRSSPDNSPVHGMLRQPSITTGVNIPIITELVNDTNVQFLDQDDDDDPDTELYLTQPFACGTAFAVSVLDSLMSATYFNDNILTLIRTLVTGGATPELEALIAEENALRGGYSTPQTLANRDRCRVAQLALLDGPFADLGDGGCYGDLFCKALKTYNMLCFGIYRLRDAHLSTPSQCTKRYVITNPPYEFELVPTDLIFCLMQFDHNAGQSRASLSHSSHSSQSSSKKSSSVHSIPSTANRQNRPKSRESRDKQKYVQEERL

## C[C@H](CO)NC(=O)c1cccc(/C=C\CCCC(=O)N(C)C)c1 [VSN16R]
KNCMA1
  response in inside-out patch: does not give a response
[1]; 0.5 h after VSN16R, p<0.05
  IOP, mean: 9.82 mmHg
[1]; 1 h after VSN16R, not significant
  IOP, mean: 10.79 mmHg
[1]; topical to the eye, normal rats
  effect on intraocular pressure: reduces intraocular pressure
[2]; Fmr1 knockout mice, baseline, 10 min, 24 h, 2 mg/kg
  open field activity (hyperactivity, memory): inhibits the hyperactivity and memory deficient; also recorded: movement behaviours were comparable to that observed in wildtype mice; also recorded: normalise the memory and exploratory behaviours to the level of wildtype mice
[2]; wildtype mice
  open field activity: exhibit comparable movement behaviour to vehicle-treated wildtype mice
[3]; 2 mg/kg i.v. over 2 weeks
  tolerability: well tolerated and no instances of toxicity were observed; also recorded: well tolerated
[3]; daily, p.o.
  tolerable dose: ≥ 1000 mg/kg
Half-life by route; intravenous route
  t½: 6 min
Half-life by route; oral vs intravenous
  half-life, oral route relative to intravenous route: 10 times
Mouse vas deferens
  effect on βγ-methylene ATP-induced contraction: does not affect
[4]
  known efficacy dose: ≥ 1 mg/kg
BK channel; EA.hy926 cells
  open probability of BKca channels: increases the open probability of BKca channels
BK channel; human EA.hy926 cells, calcium dependent
  activation of the response of the channel: voltage and calcium dependent; also recorded: activation of the response of the channel

From patent publication US20180116983A1, “COMPOUNDS FOR TREATING DISORDERS ASSOCIATED WITH BK CHANNEL MODULATION” (Canbex Therapeutics Limited, priority 2015, published 2018)
